According to US7812183B2, “Benzopyran derivatives as potassium channel openers” (Janssen Pharmaceutica NV, priority 2005, dated 2010):

Target: T1, KATP channels (Homo sapiens, UniProt O60706+Q14654)
T1 construct: TE671 human medulloblastoma cells were obtained from ATCC; host or cells: TE671 human medulloblastoma cells
Test: Potassium Channel Assay (FLIPR membrane potential, TE671 cells)
Assay type: cell-based
Conditions: TE671 human medulloblastoma cells, Membrane Potential Assay Dye, room temperature, hyperpolarization from KATP channel opening
How it was run: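 Human medulloblastoma cells plated day before at 50K/well, loaded 15–30 min with membrane potential dye in HEPES buffer (2 mM KCl, 2 mM CaCl2, 5 mM glucose) at room temperature. Compound-induced hyperpolarization (fluorescence decrease) monitored 3 min; 5 μM glyburide then added to confirm KATP opener specificity.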

T1 sequence (O60706 1-1549 isoform O60706-2): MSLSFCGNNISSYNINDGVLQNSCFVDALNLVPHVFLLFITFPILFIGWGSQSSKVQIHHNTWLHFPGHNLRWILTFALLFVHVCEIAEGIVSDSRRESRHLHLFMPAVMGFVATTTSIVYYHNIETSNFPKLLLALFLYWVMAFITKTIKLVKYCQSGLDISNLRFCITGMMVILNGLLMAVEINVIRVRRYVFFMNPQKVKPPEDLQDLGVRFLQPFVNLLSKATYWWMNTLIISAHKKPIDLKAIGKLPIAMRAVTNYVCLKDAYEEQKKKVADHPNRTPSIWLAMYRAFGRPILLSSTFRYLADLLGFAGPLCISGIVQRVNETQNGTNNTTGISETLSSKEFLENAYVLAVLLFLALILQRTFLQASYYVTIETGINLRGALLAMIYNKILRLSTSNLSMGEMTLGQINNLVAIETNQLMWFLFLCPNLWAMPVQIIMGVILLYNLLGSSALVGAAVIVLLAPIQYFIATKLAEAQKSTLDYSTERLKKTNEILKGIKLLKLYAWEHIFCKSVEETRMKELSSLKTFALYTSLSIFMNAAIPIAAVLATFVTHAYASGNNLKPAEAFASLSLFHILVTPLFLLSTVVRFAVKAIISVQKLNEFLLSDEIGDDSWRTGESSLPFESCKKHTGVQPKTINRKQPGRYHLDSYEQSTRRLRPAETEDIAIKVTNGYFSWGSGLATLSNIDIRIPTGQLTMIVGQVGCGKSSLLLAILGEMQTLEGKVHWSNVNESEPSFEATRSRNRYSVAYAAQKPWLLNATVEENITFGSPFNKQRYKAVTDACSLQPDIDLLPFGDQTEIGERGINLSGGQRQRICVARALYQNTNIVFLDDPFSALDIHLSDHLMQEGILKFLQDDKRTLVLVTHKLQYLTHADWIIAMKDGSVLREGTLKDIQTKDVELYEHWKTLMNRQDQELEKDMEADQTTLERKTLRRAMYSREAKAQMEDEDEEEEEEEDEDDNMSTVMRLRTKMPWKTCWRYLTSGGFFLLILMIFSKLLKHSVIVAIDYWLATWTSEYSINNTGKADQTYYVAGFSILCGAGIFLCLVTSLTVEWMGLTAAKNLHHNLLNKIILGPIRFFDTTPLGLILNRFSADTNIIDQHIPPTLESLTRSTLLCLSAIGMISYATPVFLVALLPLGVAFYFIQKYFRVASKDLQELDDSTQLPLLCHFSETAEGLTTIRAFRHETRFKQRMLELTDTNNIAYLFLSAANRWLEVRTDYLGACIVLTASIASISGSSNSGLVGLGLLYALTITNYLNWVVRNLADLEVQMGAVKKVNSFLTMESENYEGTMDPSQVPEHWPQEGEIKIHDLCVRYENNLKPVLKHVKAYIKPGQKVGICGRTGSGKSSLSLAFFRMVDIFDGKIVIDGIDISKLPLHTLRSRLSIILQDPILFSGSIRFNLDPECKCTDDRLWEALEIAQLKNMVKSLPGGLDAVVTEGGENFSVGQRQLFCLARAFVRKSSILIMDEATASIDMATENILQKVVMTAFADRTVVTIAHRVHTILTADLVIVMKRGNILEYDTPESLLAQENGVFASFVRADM
T1 sequence (Q14654 whole entry): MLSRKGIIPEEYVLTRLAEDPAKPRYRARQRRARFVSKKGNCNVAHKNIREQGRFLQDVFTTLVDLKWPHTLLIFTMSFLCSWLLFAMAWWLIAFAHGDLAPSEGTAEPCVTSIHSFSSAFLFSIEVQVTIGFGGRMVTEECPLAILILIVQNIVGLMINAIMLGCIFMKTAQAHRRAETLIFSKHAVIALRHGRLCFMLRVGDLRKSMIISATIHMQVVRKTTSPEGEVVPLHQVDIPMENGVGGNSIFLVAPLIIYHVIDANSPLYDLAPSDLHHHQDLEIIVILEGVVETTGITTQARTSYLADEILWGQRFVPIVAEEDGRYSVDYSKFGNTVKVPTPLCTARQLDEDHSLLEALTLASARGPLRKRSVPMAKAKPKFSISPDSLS

Compound | EC50
N#Cc1ccc2c(c1)[C@@H](Oc1noc3cc(Cl)ccc13)[C@H](O)C1(CCS(=O)(=O)CC1)O2 [Compound 200, (3S,4R)-4-(6-Chloro-benzo[d]isoxazol-3-yloxy)-2,2-(tetrahydro-4-sulfonylpyranyl)-3-hydroxy-chroman-6-carbonitrile] | 29.7 µM
CC1(C)Oc2ccc(C#N)cc2[C@@H](n2nc(N)c3cc(Cl)ccc32)[C@@H]1O [Compound 33, 4R-(3-Amino-5-chloro-indazol-1-yl)-3S-hydroxy-2,2-dimethyl-chroman-6-carbonitrile] | 6.85 µM
CC1(C)Oc2ccc(S(=O)(=O)c3cccc(F)c3)cc2[C@@H](Oc2noc3cc(Cl)ccc23)[C@@H]1O [Compound 99, 4R-(6-Chloro-benzo[d]isoxazol-3-yloxy)-6-(3-fluoro-benzenesulfonyl)-2,2-dimethyl-chroman-3S-ol] | 21.5 µM
CC1(C)Oc2ccc(C#N)cc2[C@@H](Oc2ccn(-c3ccccc3)n2)[C@@H]1O (racemic) [Compound 58, 3-Hydroxy-2,2-dimethyl-4-(1-phenyl-1H-pyrazol-3-yloxy)-chroman-6-carbonitrile] | 2.62 µM
CC1(C)Oc2ccc(S(=O)(=O)N3CCCCC3)cc2[C@@H](Oc2noc3cc(Cl)ccc23)[C@@H]1O [Compound 83, 4R-(6-Chloro-benzo[d]isoxazol-3-yloxy)-2,2-dimethyl-6-(piperidine-1-sulfonyl)-chroman-3S-ol] | > 30 µM
CC1(C)Oc2ccc(C#N)cc2[C@@H](n2ccnc2-c2ccc(Cl)cc2)[C@@H]1O (racemic) [Compound 12, 4-[2-(4-Chloro-phenyl)-imidazol-1-yl]-3-hydroxy-2,2-dimethyl-chroman-6-carbonitrile] | 5.7 µM
CC1(C)Oc2ccc(C#N)cc2[C@@H](Sc2nccc(C(F)(F)F)n2)[C@@H]1O [Compound 43, 3S-Hydroxy-2,2-dimethyl-4R-(4-trifluoromethyl-pyrimidin-2-ylsulfanyl)-chroman-6-carbonitrile] | > 30 µM
CC1(C)Oc2ccc(C#N)cc2[C@@H](Oc2noc3ccc(Cl)cc23)[C@@H]1O [Compound 38, (3S,4R)-4-(5-Chloro-benzo[d]isoxazol-3-yloxy)-3-hydroxy-2,2-dimethyl-chroman-6-carbonitrile] | 7.07 µM
CC1(C)Oc2ccncc2[C@@H](n2ccnc2-c2ccccc2)[C@@H]1O (racemic) [Compound 105, 2,2-Dimethyl-4-(2-phenyl-imidazol-1-yl)-3,4-dihydro-2H-pyrano[3,2-c]pyridin-3-ol] | > 30 µM
CC1(C)Oc2ccc(C#N)cc2[C@@H](NS(=O)(=O)c2cccc(Cl)c2)[C@@H]1O [Compound 66, (3S,4R)-3-Chloro-N-(6-cyano-3-hydroxy-2,2-dimethyl-chroman-4-yl)-benzenesulfonamide] | 1.54 µM
CC1(C)Oc2ccc(C#N)cc2[C@@H](Nc2nc3cc(Cl)ccc3s2)[C@@H]1O (racemic) [Compound 1, 4-(5-Chloro-benzothiazol-2-ylamino)-3-hydroxy-2,2-dimethyl-chroman-6-carbonitrile] | 14.6 µM
Cc1cccc2c(=O)n([C@@H]3c4cc(C#N)ccc4OC(C)(C)[C@H]3O)oc12 [Compound 32, 3S-Hydroxy-2,2-dimethyl-4R-(7-methyl-3-oxo-3H-benzo[d]isoxazol-2-yl)-chroman-6-carbonitrile] | 22.6 µM

Next, values leading:

EC50 | Compound
16.1 µM | CC1(C)Oc2ccc(C#N)cc2[C@@H](Oc2nsc3ccccc23)[C@@H]1O (racemic) [Compound 20, 4-(Benzo[d]isothiazol-3-yloxy)-3-hydroxy-2,2-dimethyl-chroman-6-carbonitrile]
0.4 µM | CC1(C)Oc2ccc(S(=O)(=O)c3ccccc3)cc2[C@@H](n2oc3ccc(Cl)cc3c2=O)[C@@H]1O [Compound 76, 2-(6-Benzenesulfonyl-3S-hydroxy-2,2-dimethyl-chroman-4-yl)-5-chloro-4R-benzo[d]isoxazol-3-one]
6.18 µM | CC1(C)Oc2ccc(C#N)cc2[C@@H](Nc2noc3cc(Cl)ccc23)[C@@H]1O [Compound 67, (3S,4R)-4-(6-Chloro-benzo[d]isoxazol-3-ylamino)-3-hydroxy-2,2-dimethyl-chroman-6-carbonitrile]
6.45 µM | CC1(C)Oc2ccc(C(=O)c3ccccc3)cc2[C@@H](n2oc3cc(Cl)ccc3c2=O)[C@@H]1O [Compound 96, 2-(6-Benzoyl-3S-hydroxy-2,2-dimethyl-chroman-4-yl)-6-chloro-4R-benzo[d]isoxazol-3-one]
26.3 µM | CC1(C)Oc2ccc(Cl)cc2C(OC(=O)c2cccc(Cl)c2)C1O (racemic) [Compound 3]
3.64 µM | CC1(C)Oc2ccc(C#N)cc2[C@@H](N2C(=O)C(=O)c3cc(Cl)ccc32)[C@@H]1O [Compound 24, (3S,4R)-4-(5-Chloro-2,3-dioxo-2,3-dihydro-indol-1-yl)-3-hydroxy-2,2-dimethyl-chroman-6-carbonitrile]
1.84 µM | CC1(C)C=C(n2ccnc2-c2ccc(Cl)cc2)c2cc(C#N)ccc2O1 [Compound 54, 4-[2-(4-Chloro-phenyl)-imidazol-1-yl]-2,2-dimethyl-2H-chromene-6-carbonitrile]
